From PMC6508961, “A high-throughput screen of pharmacologically active compounds for inhibitors of UHRF1 reveals epigenetic activity of anthracycline derivative chemotherapeutic drugs” (Oncotarget, 2019)
pIC50: −log10 of the molar value. Like-named read-outs stand apart in the source and are kept apart here.

Columns and labels:
[1] = target: T1, UHRF1_SRA binding to hemimethylated DNA (Homo sapiens, UniProt Q96T88); experiment: LOPAC primary screen with the TR-FRET assay; conditions: 20 μM; hit = Z-score < −4.08, Bonferroni adjusted p-value < 0.05
T1 construct: made in house; host or cells: E. coli BL-21 Gold
T1 sequence (Q96T88 419-582 limits assumed): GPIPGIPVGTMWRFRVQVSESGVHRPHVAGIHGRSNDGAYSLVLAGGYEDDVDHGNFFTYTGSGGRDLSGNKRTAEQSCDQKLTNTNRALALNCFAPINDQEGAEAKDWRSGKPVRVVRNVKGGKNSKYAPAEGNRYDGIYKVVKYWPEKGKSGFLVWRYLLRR
Method: The above TR-FRET assay was employed to screen the Library of Pharmacologically Active Compounds (LOPAC) (Sigma-Aldrich) using optimized conditions. 200 uM stock solutions of compounds dissolved in dimethyl sulfoxide (DMSO) were added to a final concentration of 20 μM across four 384-well plates containing 20 μL of TR-FRET buffer with 125 nM UHRF1_SRA protein, 100 nM double stranded FAM-labeled hemimethylated oligos, and 5 nM terbium labeled anti-HIS antibody. Controls on each plate include: 1) a DMSO-only vehicle control, 2) 5μM of unlabeled, methylated oligonucleotide as a positive inhibition control, 3) unmethylated, FAM-labeled oligonucleotide as a negative control, and 4) no UHRF1_SRA protein negative control. Each plate was incubated at 4° C for one hour and read using a Safire^2 (Tecan Group, Männedorf, Switzerland) with excitation at 332 nm and emissions read at 485 nm and 515 nm. A Z score of the TR-FRET signal (ratio of 515 nm signal to the 485 nm signal) was calculated for each compound using the following formula: […]
where x is the TR-FRET signal for each compound, x¯ is the median TR-FRET signal of all compounds on the plate, and σ is the standard deviation of all compound TR-FRET signals across the plate. Hits were defined as those compounds with Z-score < −4.08 corresponding to a Bonferroni adjusted p-value of less than 0.05.

[2] = target: T1, UHRF1_SRA binding to hemimethylated DNA; experiment: TR-FRET assay, dose-response inhibition of UHRF1_SRA binding to FAM-labeled hemimethylated DNA; conditions: for Dose-response validation of screen hits (result in words): dilution series 50 μM to 0.64 nM, quadruplicate
Method: TR-FRET assays were performed in an optimized TR-FRET buffer (4% glycerol, 1 mM MgCl2, 0.5 mM EDTA, 0.5 mM DTT, 125 mM NaCl, 10 mM Tris HCl, and 0.2% Tween-20) in non-binding, flat-bottom 384-well plates (Corning). UHRF1_SRA protein was added to a final concentration of 125 nM and terbium-labeled antibody was added at 5 nM (Life Technologies) in a final reaction volume of 20 μL. For initial binding experiments examining the affinity of UHRF1_SRA to DNA, FAM-labeled hemimethylated or unmethylated double stranded oligonucleotides were added in a dilution series, and the reaction mixture was incubated at 4°C with shaking for 1 hour. TR-FRET measurements were made on a SpectraMax M5 (Molecular Devices, Sunnyvale, CA, USA), using an excitation wavelength of 332 nm and emissions read at 485 nm and 515 nm with a 50 μsec delay and 400 μsec integration. The ratio of the 515 nm emission (arising from FRET) to the 485 nm emission provides a normalized TR-FRET signal that represents the extent of binding. For inhibitor curves, FAM-labeled hemimethylated oligonucleotide was added to a final concentration of 100 nM, and unlabeled oligonucleotide was added in a dilution series. A Z’ factor was calculated for 32 replicates of UHRF1_SRA protein binding FAM-labeled hemimethylated DNA with or without the addition of an excess (5 μM) of unlabeled hemimethylated inhibitor (“cold” perfect competitive inhibitor positive control for inhibition):
Each hit compound was tested using the TR-FRET assay above in quadruplicate in a dilution series (50 μM to 0.64 nM). Curve fitting was performed using the open source software R version 2.15.2 with the ggplot2 package.

DU-145 cells [3] = experiment: Clonogenic survival assay; conditions: 10 days; for Clonogenic survival, drug alone: decitabine 50 nM, mitoxantrone 2.5 nM, doxorubicin 5 nM; for Clonogenic survival, in combination with decitabine: mitoxantrone 2.5 nM or doxorubicin 5 nM with 50 nM decitabine
DU-145 cells [4] = experiment: Growth curve assay (IncuCyte); format: cell-based; conditions: mitoxantrone 1.25 nM or doxorubicin 5 nM or 10 nM with 50 nM decitabine
Method: The next day, cells were treated with a single dose of DMSO (vehicle control), decitabine alone (50 nM), mitoxantrone alone (1.25 nM), doxorubicin alone (5 nM or 10 nM), or decitabine in combination with mitoxantrone (1.25 nM) or doxorubicin (5 nM or 10 nM). Cell growth was measured using IncuCyte™ technology (Essen Bioscience, Ann Arbor, MI, USA) by imaging 16 fields per well at 6 hour intervals. The cell surface area and percent confluence were calculated using IncuCyte software, and growth curves were constructed in R using the ggplot2 package.

[5] = system: C42B prostate cancer cell line; experiment: Cellular growth/proliferation assay; format: cell-based; conditions: mitoxantrone 2.5 nM or doxorubicin 5 nM with decitabine 50 nM
Method: (§1) www.oncotarget.com Oncotarget, Supplementary Materials […]
(§2) derivative chemotherapeutic drugs
(§3) Supplementary Figure 1: Cellular growth/proliferation assays of C42B, PC-3 and LNCaP prostate cancer cell lines treated with mitoxantrone (2.5 nM) or doxorubicin (5 nM) in combination with decitabine (50 nM) or vehicle control (DMSO), decitabine alone, or DMSO alone.
(§4) (1 picture or pasted object on this page, not shown here)

[6] = system: LNCaP prostate cancer cell line; experiment: Cellular growth/proliferation assay; format: cell-based; conditions: mitoxantrone 2.5 nM or doxorubicin 5 nM with decitabine 50 nM
Method: as §1, §2, §3, §4

[7] = system: PC-3 prostate cancer cell line; experiment: Cellular growth/proliferation assay; format: cell-based; conditions: mitoxantrone 2.5 nM or doxorubicin 5 nM with decitabine 50 nM
Method: as §1, §2, §3, §4

[8] = 125 nM UHRF1_SRA, 100 nM FAM-labeled hemimethylated oligo, read-out: IC50 of inhibition of UHRF1_SRA binding to labeled hemimethylated DNA

| SMILES | Inhibition of UHRF1_SRA binding to hemimethylated DNA in pilot screen [1] | Dose-response validation of screen hits (result in words) [2] | pIC50 [2, 8] | further results |
| --- | --- | --- | --- | --- |
| N#CC(C#N)=C(N)/C(C#N)=C/c1cc(O)c(O)c(O)c1 [tyrphostin 51] | significantly inhibited | failed to show any appreciable inhibition | – | – |
| Cc1ccc(C(=O)Nc2ccc(S(=O)(=O)O)c3cc(S(=O)(=O)O)cc(S(=O)(=O)O)c23)cc1NC(=O)c1cccc(NC(=O)Nc2cccc(C(=O)Nc3cc(C(=O)Nc4ccc(S(=O)(=O)O)c5cc(S(=O)(=O)O)cc(S(=O)(=O)O)c45)ccc3C)c2)c1 [Suramin] | significantly inhibited | inhibited binding with a sigmoidal dose response | 5.65 | – |
| O=C(Nc1cccc(C(=O)Nc2ccc(S(=O)(=O)O)c3cc(S(=O)(=O)O)cc(S(=O)(=O)O)c23)c1)Nc1cccc(C(=O)Nc2ccc(S(=O)(=O)O)c3cc(S(=O)(=O)O)cc(S(=O)(=O)O)c23)c1 [NF023] | significantly inhibited | inhibited binding with a sigmoidal dose response | 6.08 | – |
| O=C(Nc1cc(C(=O)Nc2ccc(S(=O)(=O)O)cc2S(=O)(=O)O)cc(C(=O)Nc2ccc(S(=O)(=O)O)cc2S(=O)(=O)O)c1)Nc1cc(C(=O)Nc2ccc(S(=O)(=O)O)cc2S(=O)(=O)O)cc(C(=O)Nc2ccc(S(=O)(=O)O)cc2S(=O)(=O)O)c1 [NF449] | significantly inhibited | inhibited binding with a sigmoidal dose response | 6.41 | – |
| O=C(O)C1=CC(=C(c2ccc(O)c(C(=O)O)c2)c2ccc(O)c(C(=O)O)c2)C=CC1=O [aurintricarboxylic acid] | significantly inhibited | inhibited binding with a sigmoidal dose response | 7.68 | – |
| CC(=O)[C@]1(O)Cc2c(O)c3c(c(O)c2[C@@H](O[C@H]2C[C@H](N)[C@H](O)[C@H](C)O2)C1)C(=O)c1ccccc1C3=O [idarubicin] | significantly inhibited | inhibited binding with a sigmoidal dose response | 6.23 | – |
| NC(Cc1cc(O)c(O)cc1O)C(=O)O (racemic) [6-OH-DL-DOPA] | significantly inhibited | failed to show any appreciable inhibition | – | – |
| COc1cccc2c1C(=O)c1c(O)c3c(c(O)c1C2=O)C[C@@](O)(C(=O)CO)C[C@@H]3O[C@H]1C[C@H](N)[C@H](O)[C@H](C)O1 [doxorubicin] | – | – | – | Clonogenic survival, drug alone (DU-145 cells [3]): some reduction in clonogenic survival; Clonogenic survival, in combination with decitabine (DU-145 cells [3]): significantly enhanced reduction in clonogenic survival; pIC50 [2]: 6.88; Growth curve analysis, in combination with decitabine (DU-145 cells [4]): synergy; Growth/proliferation, combination with decitabine [5]: showed enhanced; Growth/proliferation, combination with decitabine [6]: did not show enhanced growth inhibition; Growth/proliferation, combination with decitabine [7]: showed enhanced |
| COc1cccc2c1C(=O)c1c(O)c3c(c(O)c1C2=O)C[C@@](O)(C(C)=O)C[C@@H]3O[C@H]1C[C@H](N)[C@H](O)[C@H](C)O1 [Daunorubicin, daunorubicin] | – | – | 6.50 | – |
| O=C1c2c(O)ccc(O)c2C(=O)c2c(NCCNCCO)ccc(NCCNCCO)c21 [mitoxantrone] | significantly inhibited | inhibited binding with a sigmoidal dose response | 6.87 | Clonogenic survival, drug alone (DU-145 cells [3]): some reduction in clonogenic survival; Clonogenic survival, in combination with decitabine (DU-145 cells [3]): significantly enhanced reduction in clonogenic survival; Growth curve analysis, in combination with decitabine (DU-145 cells [4]): synergy; Growth/proliferation, combination with decitabine [5]: enhanced inhibition of; Growth/proliferation, combination with decitabine [6]: enhanced inhibition of; Growth/proliferation, combination with decitabine [7]: enhanced inhibition of |
| NCCNc1ccc(NCCN)c2c1C(=O)c1ccncc1C2=O [Pixantrone, pixantrone] | – | – | 6.25 | – |
| N=C1Sc2ccccc2C2=NCCCN12 [PD404,182] | significantly inhibited | failed to show any appreciable inhibition | – | – |
| Nc1ncn([C@H]2C[C@H](O)[C@@H](CO)O2)c(=O)n1 [decitabine] | – | – | – | Clonogenic survival, drug alone (DU-145 cells [3]): some reduction in clonogenic survival |
| S=C=Nc1ccc2oc(C3=NCCN3)cc2c1 [BU99006] | significantly inhibited | failed to show any appreciable inhibition | – | – |
| CN(N=O)c1cc(O)ccc1O [dephostatin] | significantly inhibited | failed to show any appreciable inhibition | – | – |
| Cc1nc(N=Nc2cc(S(=O)(=O)O)c3cc([N+](=O)[O-])cc(S(=O)(=O)O)c3c2)c(COP(=O)(O)O)c(C=O)c1O [PPNDS] | significantly inhibited | inhibited binding with a sigmoidal dose response | 6.11 | – |
| Nc1c(S(=O)(=O)O)cc(Nc2ccc(Nc3nc(Cl)nc(Nc4cccc(S(=O)(=O)O)c4)n3)c(S(=O)(=O)O)c2)c2c1C(=O)c1ccccc1C2=O [Reactive Blue 2] | significantly inhibited | – | – | – |
| CN(N=O)c1ccc(O)c(O)c1 [methyl-3,4-dephostatin] | significantly inhibited | failed to show any appreciable inhibition | – | – |
